# Experiments:
# [1] = tested on: LPS (serotype O55;B5); test: LPS binding, tandem weak anion exchange / reverse phase columns with varied wash volumes; conditions: for wash volumes of column 1 needed to reduce peak by 50%: 1 CV=1.66 ml, 50 mM Tris pH 6.7; for retention on weak anion exchange column 1: with/without preincubation with LPS
# Source text: We used a tandem column method employing POROS™ columns on a BioCAD™ 20 Workstation. Column 1 was a weak anion exchange column (PI/M; 4.6×100 mm) while column 2 was a reverse phase column (R2/H; 4.6×100 mm). […] LPS, however, would be expected to interact with this column due to the presence of two charged phosphate groups at the lipid A region of the molecule. […] Material retained on column 1 was eluted directly onto column 2 where it was captured. Elution of column 2 allowed the resolution of peaks arising from column 1.
# Screening the library for binding to LPS was performed as follows. The cationic fraction of the XXXFL library was incubated (30 min/RT) with 1-3 mg/ml of LPS (serotype O55;B5; Sigma Chemical Co., St. Louis, Mo.) in 50 mM Tris, pH 6.7. At this time the incubation mixture was injected and run over column 1 on the BioCAD™ Workstation (equilibrated in the same buffer). The column was run at 4 ml/min. After washing with the appropriate number of column volumes of equilibration buffer (1 CV=1.66 ml), the column was purged and eluted (using 8 mM HCl, 1M NaCl) directly onto column 2 by switching the latter column in line with column 1 during the elution process. Material captured on column 2 was eluted using a gradient from 12 mM HCl in water to 80% ACN, 6 mM HCl. Peaks were collected, further purified by rerunning on a vydac C-18 column (4.6×250 mm), and analyzed by Mass Spectrometry (on a Voyager™ MALDI-TOF instrument; PerSeptive Biosystems, Framingham, Mass.) and peptide sequencing (Hewlett Packard). Peptides identified were synthesized and binding of these molecules to the Lipid A region of the LPS was confirmed by measuring the ability of PmxB or Pentamidine to compete with the peptide for this site.
# The number of wash volumes required to reduce the peak for these agents correlated with the reported affinities of these agents for LPS; PmxB (Kd […]) was reduced 50% after 42 CVs washing of column 1 while pentamidine (Kd 100 nM) required a higher number of washes for a similar reduction (46 CVs). Using this methodology we could rapidly examine which peaks from the library were capable of binding to LPS with the highest affinity since, upon exposure to higher numbers of wash volumes only the peptides with higher affinity for the target were retained. […] Three such peaks from the XXXFL library and 3 peaks from the CXXXC library were further purified and characterized by MS and peptide sequencing. […] The other peptides will be synthesized and studied in a similar manner although another approach being considered is that a sublibrary of the format ZZZFL (where Z represents either R or K) be screened to identify the member with the highest affinity. Candidates purified from the cyclic library are still awaiting sequencing.
# [2] = molecular target: LPS; conditions: read-out: Kd for LPS (reported affinity); cited from earlier work
# [3] = tested on: mouse IgG (Fc fragment); test: Solution phase peptide screening (SEC - reversed phase) of protein A and G digests; format: binding; conditions: native and denatured recombinant protein A and G digests
# Procedure: 5 mg each of either mouse IgG (whole) or the Fc fragment was incubated with 20 mg of natural library and protein A and G digests, respectively. The mixture was dissolved in 1 ml of a mixture of 25 mM sodium phosphate buffer and 0.15 M NaCl (pH 7) overnight at 4° C. After incubation, several chromatographic runs through the Superdex SEC and RP columns were conducted with 200 of the protein and peptide mixture injected through the Superdex column during each run. The flow rate for the Superdex column was 0.75 m/min with the 25 mM sodium phosphate buffer and 0.15 M NaCl (pH 7) mixture. The early eluting protein peak was collected directly onto the RP column. The remaining portion of the peak was washed off the SEC. The mouse IgG (whole) or Fc fragment and its associated peptides were then eluted from the RP column under the following conditions:
# Fractions corresponding to bound peptide peaks were lyophilized and redissolved in 1001 of 0.1% TFA/DIW for mass spec analysis by MALDI-TOF.
# [4] = tested on: Concanavalin A (Con A)
# Source text: (§1) The lectin Concanavalin A (Con A) has been used. Ligands were screened for specific binding to the sugar site of Con A as an example of the bimolecular approach to screening a mixture of components for interaction with a target. Biotinylated succinyl Con A was immobilized onto a streptavidin POROS™ support (BA cartridge, 2.1×30 mm). […] After exposing the column to 10 CVs of CAB buffer (0.2 m/min.), the remaining peptides were acid eluted onto a RP column. These peptides were eluted from a RP HPLC column using an acetonitrile gradient and the fractions were collected, pooled and sequenced. Recovery of each amino acid was expressed as a percentage of the total amount of amino acids recovered at each cycle of sequencing (AA %). Amino acid enrichment was then expressed for each amino acid as follows: [formula]
# [5] = molecular target: Concanavalin A (Con A) (Canavalia ensiformis, UniProt P02866)
# Source text: as §1
# [6] = tested on: IgG; test: IgG purification from human serum on POROS-immobilized peptide column; format: binding
# Procedure: 1 g POROS™ AL (aldehyde) was suspended in 10 mM PBS (pH 7.5) containing 100 mg sodium cyanoborohydride (NaCNBH3). 5 to 20 mg of each of the peptides selected by various screening procedures was added to the resin and the mixture was shaken overnight at room temperature. 100 mg sodium borohydride (NaBH4) was then added and the mixture was shaken for another 2 hrs. The beads were then washed with PBS and packed into 4.6 mm D×100 mm L column using POROS™ Self Pack® device.
# 100 μl of 1:10 diluted serum was injected onto the peptide column which was equilibrated with 20 mM tris (pH 8.0) at 5 ml/min. The bound proteins were eluted with 0-1 M NaCl gradient in 15 CVs. Fractions were collected manually and concentrated by Speed Vac for subsequent analysis by SDS-polyacrylamide gel electrophoresis.
# The […] (SEQ ID NO: 8) peptide with heme group was immobilized on POROS™AL® (aldehyde) via the N-terminal end. This POROS™-peptide conjugate was used to separate IgG from serum at pH 8 under a 0-1 M NaCl gradient. […] To determine the nature of interaction, the purification profile of IgG separated on the POROS™-peptide column was compared with the IgG purified on standard ion exchange columns such as POROS™-CM and POROS™ HQ. […] The effect of the varying loading densities of peptide (from 10 mg/g POROS™ to 100 mg/g POROS™) on specificity and capacity for IgG binding was also investigated. The specificity of the peptide for IgG binding was also investigated. […] At low loading density (10 mg/g POROS™) IgG bound primarily via ionic interaction requiring elution of bound IgG with salt gradient. At higher loading density ([…]) IgG bound strongly and eluted with acid buffer. The binding capacity varied from 1-2 mg/ml column volume at lower ligand density to 30 mg/ml column volume at higher ligand densities.
# A simplified analog of the heme peptide ([…]) (SEQ ID NO: 9) was synthesized and immobilized on POROS™ AL via the N-terminal end. […] The bound IgG was eluted from the GAQGHTVBK (SEQ ID NO: 9)-POROS™ column with 100 mM NaCl. The IgG binding capacity was determined to be 5 mg/ml column volume. Loading densities from 20 mg/g to 40 mg peptide /g POROS™ were evaluated. At these ligand densities, the specificity of IgG binding was not affected, but the capacity was reduced.
# [7] = tested on: monoclonal antibody (mouse IgG2a, clone 3E-7) raised against human β-endorphin; test: Peptide binding to immobilized anti-β-endorphin mAb affinity column in tandem with C-18 column
# Procedure: The purchased mAb (280 mg resuspended in 1 ml H2O) was passed over an XL cartridge (2.1×30 mm) consisting of protein-G coupled to POROS™ perfusion chromatographic media (PerSeptive Biosystems, Framingham, Mass.) by making […] injections on a BioCAD™ 20 Workstation (PerSeptive Biosystems, Framingham, Mass.). Protein-G binds to the Fc region of antibodies with high affinity. The mAb was subsequently cross-linked to the protein G using the standard methods and materials provided with the XL column. In brief, this consisted of passing 14 ml of cross-linking solution (100 mM triethanolamine, pH 8.5, 7.8 mg/ml dimethyl pimelimidate (DMP)) over the column at a flow rate of 0.5 ml/mm. The cross-linking reagent was quenched by subsequent injection of 2 ml of 100 mM monoethanolamine, pH 9.0. The sensor cartridge was washed with PBS, pH 7.4 at 0.5 ml/min for 2 min followed by a further injection of 2 ml of quench solution and washed as above. […] A second XL column (without antibody) was treated with cross-linking reagents and washed as for the affinity column for use as a “control column”.
# The target immobilized affinity column prepared above was plumbed in tandem mode to a vydac reversed phase C-18 column on a BioCAD™ Workstation using the configuration shown in FIG. 5. This configuration allowed independent equilibration and washing of the affinity and vydac columns while allowing in line elution of material bound to the mAb-column directly onto the vydac column. The reverse phase vydac column could then be eluted independently of the affinity column.
# This reversed phase column was then developed with a gradient of acetonitrile (4% ACN/12 mM HCl to 80% ACN/6 mM HCl over 18 min; flow rate 1 ml/min). Both columns were re-equilibrated in their respective starting buffers prior to the next injection.
# The peptide solution (20 nmol) was injected onto the affinity column and then unbound peptide was removed by washing the column with PBS, pH, 7.4. Peptides affinity captured by the antibody was eluted from the “target column” directly onto the C-18 column for resolution.
# [8] = molecular target: Monoclonal antibody (mAb), mouse IgG2a, clone 3E-7, raised against human β-endorphin (mouse); test: 20 nmol peptide injected on immobilized mAb column, acid eluted onto C-18 column; peak area
# [9] = molecular target: Monoclonal antibody (mAb), mouse IgG2a, clone 3E-7, raised against human β-endorphin (mouse); test: increasing quantities of peptide injected on immobilized mAb column; peak height on C-18 column
# [10] = molecular target: human IgG (whole), pure or from human serum (human); test: peptide immobilized on POROS AL via the N-terminal end; IgG binding capacity of the column
molecule,measurement,setting,value
N=C(N)c1ccc(OCCCCCOc2ccc(C(=N)N)cc2)cc1 [pentamidine],wash volumes of column 1 needed to reduce peak by 50%,[1],46 CVs
same,retention on weak anion exchange column 1,[1],retained on column 1 under the conditions used only after preincubation in the presence of LPS
same,Kd,[2],100 nM
EKEPEVID (OTHER INFORMATION: Description of Artificial Sequence: Protein fragment derived from the tryptic digest of protein A and G) [peptide from recombinant Protein G digest],selected as binder in solution phase screening,[3],identified
GDAPTPEKEPEASI (OTHER INFORMATION: Description of Artificial Sequence: Protein fragment derived from the tryptic digest of protein A and G) [peptide from recombinant Protein G digest],selected as binder in solution phase screening,[3],identified
HHRSY,binding to control column,[4],little binding to the control column
same,displacement by competing sugar ligand,[5]; high concentration of competing sugar ligand,displaced somewhat
same,binding to Con A immobilized on the column,[5]; synthesized peptide,capable of binding specifically to Con A
KKRFL (OTHER INFORMATION: Description of Artificial Sequence: synthetic peptide),affinity for LPS relative to Pentamidine,[1],much lower than the latter molecule
same,competition for LPS binding,[1]; competition experiment with Pentamidine,displaced by Pentamidine
same,binding to LPS,"[1]; synthesized peptide, same paradigm",demonstrated to bind to LPS
TVTEK (OTHER INFORMATION: Description of Artificial Sequence: Protein fragment derived from the tryptic digest of protein A and G),IgG binding affinity relative to proteins A & G,[6]; salt gradient suffices for elution,"bind IgG, but with less affinity"
TVTEKPE (OTHER INFORMATION: Description of Artificial Sequence:Protein fragment derived from the tryptic digest of protein A and G) [peptide from recombinant Protein G digest],selected as binder in solution phase screening,[3],identified
TVTEKPEV (immobilized on POROS; OTHER INFORMATION: Description of Artificial Sequence: Synthetic peptide corresponding to a part of the Fc binding domain of recombinant protein G),specificity of IgG binding from human serum,"[6]; pH 8, immobilized on POROS via N-terminal end",comparable specificity as the POROS™-Protein A conjugate
YEYFL (OTHER INFORMATION: Description of Artificial Sequence: synthetic peptide),retention by the mAb affinity column,[7]; parallel experiment,not retained
YGGFL,"amount of the peptide recovered from affinity column, calculated from peak area","[7]; 20 nmol injected, PBS pH 7.4 wash, eluted onto C-18",approximately 1.2 nmoles
same,effect of injection flow rate on amount of peptide bound/recovered,[7]; flow rate 0.2 ml/min to 5 ml/min,did not affect the recovery
same,"amount of bound peptide at saturation, calculated from peak height",[7]; increasing quantities injected,about 1.2 nmoles
polymyxin B,wash volumes of column 1 needed to reduce peak by 50%,[1],42 CVs
same,retention on weak anion exchange column 1,[1],retained on column 1 under the conditions used only after preincubation in the presence of LPS
synthetic peptide YGGFL (SEQ ID NO: 1),amount of the peptide recovered,[8],1.2 nmol
same,amount of the bound peptide at saturation,[9],1.2 nmol
"GAQGHTVEK [… (SEQ ID NO: 9), simplified analog of the heme peptide]",IgG binding capacity (mg/ml column volume),[10],5
